The source of these data is article PMC10222582, “Iminosugar-Based Nicotinamide Phosphoribosyltransferase (NAMPT) Inhibitors as Potential Anti-Pancreatic Cancer Agents” (Pharmaceutics, 2023).

A word on the pIC50: it is the negative decadic logarithm of the IC50, by convention in mol/L.

pIC50: −log10 of the molar value. Bounds are passed on as bounds.

The test system of the first assay is MiaPaCa-2 cells. Put plainly: Measurement of intracellular NAD+ levels (cycling enzymatic assay). As to conditions: 24 h, 100 μM of inhibitor, SD < 20%. Type of assay: cell-based, human.
Turning to `O=C(NCc1ccc(C(=O)Nc2ccccc2)cc1)c1ccccc1` [Compound 43], the “iNAD+ Depletion (%)” value was 1%.
The same measure, in the same setting: with `CC(C)(C)c1ccc(S(=O)(=O)N2CCC(CCCC(=O)Nc3ccc([C@@H]4N[C@H](CO)[C@@H](O)[C@H]4O)cc3)CC2)cc1` [Compound 21] the figure was 0%; with `CC(C)(C)c1ccc(S(=O)(=O)N2CCC(CCCC(=O)Nc3ccccc3)CC2)cc1` [Compound 34], 6%.
Same read-out and setting: then `COC[C@H]1N[C@@H](c2ccc(NC(=O)CCCCCNC(=O)c3ccccc3)cc2)[C@H](OC)[C@@H]1OC` [Compound 28], with 3%; and `COC[C@H]1N[C@@H](c2ccc(NC(=O)CCCC3CCN(C(=O)c4ccccc4)CC3)cc2)[C@H](OC)[C@@H]1OC` [Compound 27], with 0%; and `COC[C@H]1N[C@@H](c2ccc(NC(=O)c3ccc(CNS(=O)(=O)c4ccc(C(C)(C)C)cc4)cc3)cc2)[C@H](OC)[C@@H]1OC` [Compound 29], with 79%.
The same measure, in the same setting: with `CC(C)(C)c1ccc(S(=O)(=O)NCc2ccc(C(=O)Nc3ccccc3)cc2)cc1` [Compound 42] the figure was 61%; with `O=C(CCCC1CCN(C(=O)c2ccccc2)CC1)Nc1ccccc1` [Compound 35], 4%; with `O=C(CCCC1CCN(C(=O)c2ccccc2)CC1)Nc1ccc([C@@H]2N[C@H](CO)[C@@H](O)[C@H]2O)cc1` [Compound 22], 77%.
`O=C(CCCCCNC(=O)c1ccccc1)Nc1ccc([C@@H]2N[C@H](CO)[C@@H](O)[C@H]2O)cc1` [Compound 23]: the “iNAD+ Depletion (%)” value was 5%.
`O=C(NCc1ccc(C(=O)Nc2ccc([C@@H]3N[C@H](CO)[C@@H](O)[C@H]3O)cc2)cc1)c1ccccc1` [Compound 25]: the “iNAD+ Depletion (%)” value is on record as 0%.
The same measure, in the same setting: then `COC[C@H]1N[C@@H](c2ccc(NC(=O)c3ccc(CNC(=O)c4ccccc4)cc3)cc2)[C@H](OC)[C@@H]1OC` [Compound 30], with 0%; and `CC(C)(C)c1ccc(S(=O)(=O)NCc2ccc(C(=O)Nc3ccc([C@@H]4N[C@H](CO)[C@@H](O)[C@H]4O)cc3)cc2)cc1` [Compound 24], with 9%; and `COC[C@H]1N[C@@H](c2ccc(NC(=O)CCCC3CCN(S(=O)(=O)c4ccc(C(C)(C)C)cc4)CC3)cc2)[C@H](OC)[C@@H]1OC` [Compound 26], with 10%.
Same read-out and setting: with `O=C(CCCCCNC(=O)c1ccccc1)Nc1ccccc1` [Compound 38] the figure was 0%; with `O=C(/C=C/c1cccnc1)NCCCCC1CCN(C(=O)c2ccccc2)CC1` [FK866, reference compound], 90%.

The subject of a further assay is MiaPaCa-2 cells. The assay can be described thus: Cell viability assay (SRB). Type of assay: cell-based. To be noted: Homo sapiens, MIA PaCa-2; MiaPaCa-2, 72 h; NI (footnote 2) = No inhibition at concentration < 100 μM. Here is the method:
Cell viability assay. MiaPaCa-2 cells (2 × 10^3/well) were plated in 96−well plates and left to adhere overnight. After 24 h the cells were treated with the inhibitors. Viability was determined after 72 h. The culture plates were fixed with cold 3% trichloroacetic acid at 4 °C for 30 min, washed with cold water and dried overnight. Finally, the plates were stained with 0.4% sulforodhamine B (SRB) in 1% acetic acid, washed four times with 1% acetic acid to remove unbound dye, dried overnight and then the stain was extracted with 10 mM Tris Base and the absorbance was read at 560 nm.
Then, the new compounds were tested in vitro for their anti-proliferative effect, using the human pancreatic cancer cell line MiaPaca-2 in the cytotoxicity assays (Table 1).
For the molecule `CC(C)(C)c1ccc(S(=O)(=O)N2CCC(CCCC(=O)Nc3ccc([C@@H]4N[C@H](CO)[C@@H](O)[C@H]4O)cc3)CC2)cc1` [Compound 21], the pIC50 is below 3.40.

Staying with this assay, now noted: Homo sapiens, MIA PaCa-2; MiaPaCa-2, 72 h; NI (footnote 3) = No inhibition at concentration < 400 μM; SD < 20%.
Regarding `O=C(NCc1ccc(C(=O)Nc2ccccc2)cc1)c1ccccc1` [Compound 43], the negative-log IC50 (pIC50) was 3.16.
On the same count and under the same terms, then `CC(C)(C)c1ccc(S(=O)(=O)N2CCC(CCCC(=O)Nc3ccccc3)CC2)cc1` [Compound 34], with 4.33; and `COC[C@H]1N[C@@H](c2ccc(NC(=O)CCCCCNC(=O)c3ccccc3)cc2)[C@H](OC)[C@@H]1OC` [Compound 28], with below 3.40; and `COC[C@H]1N[C@@H](c2ccc(NC(=O)CCCC3CCN(C(=O)c4ccccc4)CC3)cc2)[C@H](OC)[C@@H]1OC` [Compound 27], with 3.27.
Consider `COC[C@H]1N[C@@H](c2ccc(NC(=O)c3ccc(CNS(=O)(=O)c4ccc(C(C)(C)C)cc4)cc3)cc2)[C@H](OC)[C@@H]1OC` [Compound 29], for which the pIC50 is 4.49.
The same measure, in the same setting: with `CC(C)(C)c1ccc(S(=O)(=O)NCc2ccc(C(=O)Nc3ccccc3)cc2)cc1` [Compound 42] the figure was below 3.40; with `O=C(CCCC1CCN(C(=O)c2ccccc2)CC1)Nc1ccccc1` [Compound 35], 4.04.
Same read-out and setting: with `O=C(CCCC1CCN(C(=O)c2ccccc2)CC1)Nc1ccc([C@@H]2N[C@H](CO)[C@@H](O)[C@H]2O)cc1` [Compound 22] the figure was 3.97.
Still for that read-out and setting: with `O=C(CCCCCNC(=O)c1ccccc1)Nc1ccc([C@@H]2N[C@H](CO)[C@@H](O)[C@H]2O)cc1` [Compound 23] the figure was below 3.40.
Consider `O=C(NCc1ccc(C(=O)Nc2ccc([C@@H]3N[C@H](CO)[C@@H](O)[C@H]3O)cc2)cc1)c1ccccc1` [Compound 25], for which the pIC50 is below 3.40.
Same read-out and setting: with `COC[C@H]1N[C@@H](c2ccc(NC(=O)c3ccc(CNC(=O)c4ccccc4)cc3)cc2)[C@H](OC)[C@@H]1OC` [Compound 30] the figure was 3.04.
Still for that read-out and setting: with `CC(C)(C)c1ccc(S(=O)(=O)NCc2ccc(C(=O)Nc3ccc([C@@H]4N[C@H](CO)[C@@H](O)[C@H]4O)cc3)cc2)cc1` [Compound 24] the figure was below 3.40; with `COC[C@H]1N[C@@H](c2ccc(NC(=O)CCCC3CCN(S(=O)(=O)c4ccc(C(C)(C)C)cc4)CC3)cc2)[C@H](OC)[C@@H]1OC` [Compound 26], 4.43.
As to `O=C(CCCCCNC(=O)c1ccccc1)Nc1ccccc1` [Compound 38], the pIC50 was 3.47.
Still for that read-out and setting: then `O=C(/C=C/c1cccnc1)NCCCCC1CCN(C(=O)c2ccccc2)CC1` [FK866, reference compound], with 8.62.

The test system of another assay is MiaPaCa-2 cells. The assay can be described thus: Measurement of intracellular NAD+ levels (cycling enzymatic assay). The assay is classed as cell-based, human. To be noted: after 24 h. More on the design: dose or concentration left out as unconfirmed. Here is the method: Measurement of intracellular NAD^+ levels. MiaPaCa-2 cells were plated at a density of 6.5 × 10^4 cells/well in 12−well plates. After 24 h, cells were treated (or not) with the different compounds and cultured for a further 24 h. Cells were harvested and lysed in 0.1 mL 0.6 M perchloric acid. Intracellular NAD^+ levels were determined with a cycling enzymatic assay, as previously reported.
In order to confirm that the above-mentioned anti-proliferative effect of the new NAMPT inhibitors were associated with NAD^+ depletion, we evaluated the intracellular NAD^+ concentration (iNAD^+) in MiaPaCa-2 cells for all the compounds (at a fixed […] concentration). After 24 h, only the iminosugar-based inhibitors 22 (77%) and 29 (79%), as well as the non-carbohydrate analogue 42 (61%), led to significant depletion; the other compounds exerted an effect in the 0–10% range.
Turning to `COC[C@H]1N[C@@H](c2ccc(NC(=O)c3ccc(CNS(=O)(=O)c4ccc(C(C)(C)C)cc4)cc3)cc2)[C@H](OC)[C@@H]1OC` [Compound 29], the “intracellular NAD+ depletion” value is reported as 79%.
Take `CC(C)(C)c1ccc(S(=O)(=O)NCc2ccc(C(=O)Nc3ccccc3)cc2)cc1` [Compound 42]: the “intracellular NAD+ depletion” value came out at 61%.
The same measure, in the same setting: with `O=C(CCCC1CCN(C(=O)c2ccccc2)CC1)Nc1ccc([C@@H]2N[C@H](CO)[C@@H](O)[C@H]2O)cc1` [Compound 22] the figure was 77%.

In a further assay the target is T1, recombinant human NAMPT (Homo sapiens, UniProt P43490).
T1 construct: purchased Abcam ab198090
T1 sequence (P43490 whole entry): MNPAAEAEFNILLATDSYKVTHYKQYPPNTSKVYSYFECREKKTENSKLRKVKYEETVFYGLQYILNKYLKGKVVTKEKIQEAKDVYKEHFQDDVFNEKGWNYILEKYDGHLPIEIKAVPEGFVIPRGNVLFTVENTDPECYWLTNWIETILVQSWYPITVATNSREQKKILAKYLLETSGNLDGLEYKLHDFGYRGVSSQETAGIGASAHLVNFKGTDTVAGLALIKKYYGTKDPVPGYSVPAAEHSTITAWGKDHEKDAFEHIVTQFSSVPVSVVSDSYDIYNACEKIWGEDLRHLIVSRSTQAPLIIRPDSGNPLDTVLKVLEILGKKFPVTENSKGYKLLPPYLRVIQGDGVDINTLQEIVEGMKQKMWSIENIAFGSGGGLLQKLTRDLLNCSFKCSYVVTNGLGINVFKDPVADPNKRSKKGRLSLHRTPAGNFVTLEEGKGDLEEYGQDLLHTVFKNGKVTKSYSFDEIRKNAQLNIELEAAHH
The assay can be described thus: NAMPT inhibition (fluorometric NMN detection). Type of assay: biochemical. As to conditions: NI = No inhibition at concentration < 1 mM, SD < 20%.
`O=C(NCc1ccc(C(=O)Nc2ccccc2)cc1)c1ccccc1` [Compound 43]: the pIC50 is 3.55.
Take `CC(C)(C)c1ccc(S(=O)(=O)N2CCC(CCCC(=O)Nc3ccc([C@@H]4N[C@H](CO)[C@@H](O)[C@H]4O)cc3)CC2)cc1` [Compound 21]: the negative-log IC50 (pIC50) is below 3.00.
For the molecule `CC(C)(C)c1ccc(S(=O)(=O)N2CCC(CCCC(=O)Nc3ccccc3)CC2)cc1` [Compound 34], the negative logarithm of the IC50 (pIC50) is 3.45.
`COC[C@H]1N[C@@H](c2ccc(NC(=O)CCCCCNC(=O)c3ccccc3)cc2)[C@H](OC)[C@@H]1OC` [Compound 28]: the pIC50 is 3.22.
Consider `COC[C@H]1N[C@@H](c2ccc(NC(=O)CCCC3CCN(C(=O)c4ccccc4)CC3)cc2)[C@H](OC)[C@@H]1OC` [Compound 27], for which the pIC50 was below 3.00.
On the same count and under the same terms, then `COC[C@H]1N[C@@H](c2ccc(NC(=O)c3ccc(CNS(=O)(=O)c4ccc(C(C)(C)C)cc4)cc3)cc2)[C@H](OC)[C@@H]1OC` [Compound 29], with 4.20.
The same measure, in the same setting: with `CC(C)(C)c1ccc(S(=O)(=O)NCc2ccc(C(=O)Nc3ccccc3)cc2)cc1` [Compound 42] the figure was 4.37; with `O=C(CCCC1CCN(C(=O)c2ccccc2)CC1)Nc1ccccc1` [Compound 35], below 3.00; with `O=C(CCCC1CCN(C(=O)c2ccccc2)CC1)Nc1ccc([C@@H]2N[C@H](CO)[C@@H](O)[C@H]2O)cc1` [Compound 22], 4.00.
On the same count and under the same terms, with `O=C(CCCCCNC(=O)c1ccccc1)Nc1ccc([C@@H]2N[C@H](CO)[C@@H](O)[C@H]2O)cc1` [Compound 23] the figure was 3.44; with `O=C(NCc1ccc(C(=O)Nc2ccc([C@@H]3N[C@H](CO)[C@@H](O)[C@H]3O)cc2)cc1)c1ccccc1` [Compound 25], below 3.00.
On to `COC[C@H]1N[C@@H](c2ccc(NC(=O)c3ccc(CNC(=O)c4ccccc4)cc3)cc2)[C@H](OC)[C@@H]1OC` [Compound 30], for which the negative-log IC50 (pIC50) is below 3.00.
Same read-out and setting: then `CC(C)(C)c1ccc(S(=O)(=O)NCc2ccc(C(=O)Nc3ccc([C@@H]4N[C@H](CO)[C@@H](O)[C@H]4O)cc3)cc2)cc1` [Compound 24], with 3.26; and `COC[C@H]1N[C@@H](c2ccc(NC(=O)CCCC3CCN(S(=O)(=O)c4ccc(C(C)(C)C)cc4)CC3)cc2)[C@H](OC)[C@@H]1OC` [Compound 26], with 3.86.
Turning to `O=C(CCCCCNC(=O)c1ccccc1)Nc1ccccc1` [Compound 38], the pIC50 is 3.95.
